Test results taken from ChEMBL document CHEMBL2375211, “2-methoxyjuglone induces apoptosis in HepG2 human hepatocellular carcinoma cells and exhibits in vivo antitumor activity in a H22 mouse hepatocellular carcinoma model” (J Nat Prod, 2013).
Converted amounts (≈) assume the structure as drawn. The source made the active and inactive calls. The calls are words filed in the database; no cut-off is given here.

How the values were obtained:
[1] = test system: H22; assay: Antitumor activity against mouse H22 cells allografted in Kunming mouse assessed as decrease in weight of tumor mass at 0.5 mg/kg/day, ip administered 8 days measured after 10 days relative to control; type: functional; design: scale not given: the % may be the effect or the level left; conditions: route intraperitoneal
[2] = test system: HepG2; assay: Cell cycle arrest in human HepG2 cells assessed as accumulation at S phase at 6.4 ug/mL after 24 hrs by propidium iodide staining-based flow cytometric analysis (reference value: 46%); type: functional
[3] = test system: HepG2; assay: Cell cycle arrest in human HepG2 cells assessed as accumulation at S phase at 8 ug/mL after 24 hrs by propidium iodide staining-based flow cytometric analysis (reference value: 46%); type: functional
[4] = test system: HepG2; assay: Cell cycle arrest in human HepG2 cells assessed as accumulation at G1 phase at 8 ug/mL after 24 hrs by propidium iodide staining-based flow cytometric analysis (reference value: 45%); type: functional
[5] = test system: HepG2; assay: Cell cycle arrest in human HepG2 cells assessed as accumulation at G1 phase at 1.6 ug/mL after 48 hrs by propidium iodide staining-based flow cytometric analysis (reference value: 64%); type: functional
[6] = test system: HepG2; assay: Cytotoxicity against human HepG2 cells assessed as cell viability after 24 hrs by MTT assay; type: functional, cell-based; conditions: HepG2, 24 h
[7] = test system: HepG2; assay: Cell cycle arrest in human HepG2 cells assessed as accumulation at S phase at 4.8 ug/mL after 24 hrs by propidium iodide staining-based flow cytometric analysis (reference value: 46%); type: functional
[8] = test system: HepG2; assay: Cell cycle arrest in human HepG2 cells assessed as accumulation at G2/M phase at 4.8 ug/mL after 24 hrs by propidium iodide staining-based flow cytometric analysis (reference value: 9%); type: functional
[9] = test system: HepG2; assay: Cell cycle arrest in human HepG2 cells assessed as accumulation at G1 phase at 8 ug/mL after 48 hrs by propidium iodide staining-based flow cytometric analysis (reference value: 64%); type: functional
[10] = test system: HepG2; assay: Cell cycle arrest in human HepG2 cells assessed as accumulation at G1 phase at 6.4 ug/mL after 48 hrs by propidium iodide staining-based flow cytometric analysis (reference value: 64%); type: functional
[11] = test system: HepG2; assay: Induction of apoptosis in human HepG2 cells assessed as apoptotic body formation at 8 ug/mL after 24 hrs by acridine orange/ethidium bromide staining-based fluorescence microscopic analysis; type: functional, cell-based
[12] = test system: HepG2; assay: Cell cycle arrest in human HepG2 cells assessed as accumulation at G2/M phase at 8 ug/mL after 24 hrs by propidium iodide staining-based flow cytometric analysis (reference value: 9%); type: functional
[13] = test system: H22; assay: Antitumor activity against mouse H22 cells allografted in Kunming mouse assessed as decrease in weight of tumor mass at 1 mg/kg/day, ip administered 8 days measured after 10 days relative to control; type: functional; design: scale not given: the % may be the effect or the level left; conditions: route intraperitoneal
[14] = test system: HepG2; assay: Cell cycle arrest in human HepG2 cells assessed as accumulation at sub-G1 phase at 4.8 ug/mL after 48 hrs by propidium iodide staining-based flow cytometric analysis (reference value: 3%); type: functional
[15] = test system: HepG2; assay: Cell cycle arrest in human HepG2 cells assessed as accumulation at S phase at 6.4 ug/mL after 48 hrs by propidium iodide staining-based flow cytometric analysis (reference value: 31%); type: functional
[16] = test system: HepG2; assay: Cell cycle arrest in human HepG2 cells assessed as accumulation at G2/M phase at 1.6 ug/mL after 24 hrs by propidium iodide staining-based flow cytometric analysis (reference value: 9%); type: functional
[17] = test system: HepG2; assay: Cell cycle arrest in human HepG2 cells assessed as accumulation at sub-G1 phase at 6.4 ug/mL after 24 hrs by propidium iodide staining-based flow cytometric analysis (reference value: 4%); type: functional
[18] = test system: HepG2; assay: Cytotoxicity against human HepG2 cells assessed as decrease in cell viability after 24 to 72 hrs by MTT assay; type: functional, cell-based
[19] = test system: HepG2; assay: Induction of apoptosis in human HepG2 cells assessed as decrease in Bcl-2 level at 1.6 to 4.8 ug/mL after 24 hrs by Western blot analysis; type: functional, cell-based
[20] = test system: HepG2; assay: Cell cycle arrest in human HepG2 cells assessed as accumulation at G2/M phase at 3.2 ug/mL after 48 hrs by propidium iodide staining-based flow cytometric analysis (reference value: 5%); type: functional
[21] = test system: Mus musculus; assay: Toxicity in Kunming mouse allografted with mouse H22 cells assessed as decrease in body weight at 0.25 to 1 mg/kg/day, ip measured every day for 8 days; type: organism-based; design: route intraperitoneal; conditions: in vivo, 192 h
[22] = test system: HepG2; assay: Cytotoxicity against human HepG2 cells assessed as cell viability after 72 hrs by MTT assay; type: functional, cell-based; conditions: HepG2, 72 h
[23] = test system: HepG2; assay: Cell cycle arrest in human HepG2 cells assessed as accumulation at G2/M phase at 1.6 ug/mL after 48 hrs by propidium iodide staining-based flow cytometric analysis (reference value: 5%); type: functional
[24] = test system: HepG2; assay: Cell cycle arrest in human HepG2 cells assessed as accumulation at G1 phase at 4.8 ug/mL after 48 hrs by propidium iodide staining-based flow cytometric analysis (reference value: 64%); type: functional
[25] = test system: HepG2; assay: Cell cycle arrest in human HepG2 cells assessed as accumulation at S phase at 3.2 ug/mL after 48 hrs by propidium iodide staining-based flow cytometric analysis (reference value: 31%); type: functional
[26] = test system: H22; assay: Antitumor activity against mouse H22 cells allografted in Kunming mouse assessed as decrease in tumor size at 0.5 to 1 mg/kg/day, ip administered 8 days measured after 10 days; type: functional, organism-based
[27] = test system: HepG2; assay: Cell cycle arrest in human HepG2 cells assessed as accumulation at S phase at 3.2 ug/mL after 24 hrs by propidium iodide staining-based flow cytometric analysis (reference value: 46%); type: functional
[28] = test system: HepG2; assay: Cell cycle arrest in human HepG2 cells assessed as accumulation at G2/M phase at 4.8 ug/mL after 48 hrs by propidium iodide staining-based flow cytometric analysis (reference value: 5%); type: functional
[29] = test system: HepG2; assay: Cell cycle arrest in human HepG2 cells assessed as accumulation at G2/M phase at 6.4 ug/mL after 24 hrs by propidium iodide staining-based flow cytometric analysis (reference value: 9%); type: functional
[30] = test system: HepG2; assay: Induction of apoptosis in human HepG2 cells assessed as appearance of cell shrinkage at 4.8 to 8 ug/mL after 24 hrs by inverted microscopic analysis relative to control; type: functional, cell-based

COC1=CC(=O)c2c(O)cccc2C1=O
Activity [1]: 56%
Activity [2]: 61%
Activity [3]: 59%
Activity [4]: 41%
Activity [5]: 50%
IC50 [6]: 3.8 µg/mL (≈ 18.6 µM)
Activity [7]: 62%
Activity [8]: 0%
Activity [9]: 54%
Activity [10]: 46%
Activity [11]: Active
Activity [12]: 0%
Activity [13]: 67%
Activity [14]: 6%
Activity [15]: 52%
Activity [16]: 1%
Activity [17]: 6%
Activity [18]: Dose-dependent effect
Activity [19]: Active
Activity [20]: 1%
Activity [21]: Non-toxic
IC50 [22]: 2.7 µg/mL (≈ 13.2 µM)
Activity [23]: 1%
Activity [24]: 32%
Activity [25]: 64%
Activity [26]: Active
Activity [27]: 64%
Activity [28]: 2%
Activity [29]: 2%
Activity [30]: Active
